# Measurements taken from patent publication US9567642B2, “Methods and products related to targeted cancer therapy” (Massachusetts Institute of Technology, priority 2012, dated 2017).
# Columns and labels:
# [1] = system: p53 wild type or p53 mutant cells; experiment: Q-RT-PCR of doxorubicin induced p21 and CD80 mRNA; type: cell-based, human; details: set of p53 wild type or p53 mutant cells, FIG. 14
# Protocol: Tumors were isolated from Kras^LA2/+; Trp53^LSL/LSL; Rosa26^CreERT2 animals, dissociated with collagenase and trypsin for one hour at 37° C., and then grown in DME plus 10% fetal bovine serum. Human cell lines were obtained from American Type Culture Collection and grown per manufacturer recommendations.
# RNA was isolated from cultured cells with Trizol reagent following manufacturer protocol. Complementary DNA was generated from 1 μg total RNA using High Capacity RT-PCR Kit (Roche, quantitative PCR (Q-RT-PCR)) following manufacturer protocol. Total cDNA was diluted 20 fold in H2O and 10 μL was used in a SYBR green quantitative PCR reaction. Specifically, specific primers were diluted from 100 μM stocks to a final concentration of 0.25 μM into JumpStart Ready Taq SYBR green (Sigma) and 10 μL was mixed with 10 μL diluted cDNA and cycled 40 times with the following cycling parameters on a Step One Plus (Applied Biosystems) real-time thermocycler: […]
# [2] = system: CD80 cell surface expression; experiment: Flow cytometry of CD80 cell surface expression; type: cell-based, mouse; details: cells untreated, treated with tamoxifen, AdFlpO or AdCre; FIG. 11
# Protocol: Tumors were isolated from Kras^LA2/+; Trp53^LSL/LSL; Rosa26^CreERT2 animals, dissociated with collagenase and trypsin for one hour at 37° C., and then grown in DME plus 10% fetal bovine serum. Human cell lines were obtained from American Type Culture Collection and grown per manufacturer recommendations. Cells were harvested from plasticware using 2 mM EDTA solution. Approximately 1 […] cells were resuspended in % FBS in PBS and incubated with APC conjugated CD80 Ab at a 1:100 dilution (Hamster IgG2 Clone:16-10A1 from BD Biosciences). Cells were scanner on a FASCaliber flow cytometer (BD Biosciences).
Structure (SMILES),induction of p21 as measured by Q-RT-PCR [1],induction of CD80 as measured by Q-RT-PCR ([1]; induction of human CD80 mirrors p21 induction),CD80 cell surface expression (flow cytometry histograms) [2]
COc1cccc2c1C(=O)c1c(O)c3c(c(O)c1C2=O)C[C@@](O)(C(=O)CO)C[C@@H]3O[C@H]1C[C@H](N)[C@H](O)[C@H](C)O1 [doxorubicin],induced,induced,–
CC/C(=C(\c1ccccc1)c1ccc(OCCN(C)C)cc1)c1ccccc1 [tamoxifen],–,–,not tamoxifen dependent
